Activity calls are given as the source filed them. The calls are words filed in the database; no cut-off is given here.
Assays:
Mus musculus [1] = experiment: Neurotoxicity in albino CF1 mouse assessed as behavioral impairment at 100 mg/kg, ip after 0.25 hrs by rotorod test; format: toxicity, organism-based; conditions: in vivo
Mus musculus [2] = experiment: Anticonvulsant activity in albino CF1 mouse assessed as protection against 32 mA current-induced seizure at 300 mg/kg, ip after 0.5 hrs by 6 Hz psychomotor test; format: functional, organism-based
Mus musculus [3] = experiment: Neurotoxicity in albino CF1 mouse assessed as behavioral impairment at 30 mg/kg, ip after 2 hrs by rotorod test; format: toxicity, organism-based; conditions: in vivo
Mus musculus [4] = experiment: Neurotoxicity in albino CF1 mouse assessed as behavioral impairment at 300 mg/kg, ip after 2 hrs by rotorod test; format: toxicity, organism-based; conditions: in vivo
Mus musculus [5] = experiment: Anticonvulsant activity in ip dosed albino CF1 mouse assessed as protection against maximal electroshock-induced seizures by measuring time to peak effect; format: functional
Mus musculus [6] = experiment: Anticonvulsant activity in ip dosed albino CF1 mouse assessed as protection against subcutaneous metrazol-induced seizures by measuring time to peak effect; format: functional
[7] = Protective index, ratio of TD50 for neurotoxicity in ip dosed albino Sprague-Dawley rat to ED50 for anticonvulsant activity in ip dosed maximal electroshock-induced seizure albino Sprague-Dawley rat model; format: toxicity, organism-based; conditions: in vivo, read-out: Ratio TD50/ED50
Rattus norvegicus [8] = experiment: Anticonvulsant activity in albino Sprague-Dawley rat assessed as protection against maximal electroshock-induced seizures at 30 mg/kg, ip after 1 hr; format: functional, organism-based
[9] = Protective index, ratio of TD50 for neurotoxicity in ip dosed albino CF1 mouse to ED50 for anticonvulsant activity in ip dosed […] metrazol-induced seizure albino CF1 mouse model; format: toxicity, organism-based; conditions: in vivo, read-out: Ratio TD50/ED50
Mus musculus [10] = experiment: Anticonvulsant activity in ip dosed albino CF1 mouse assessed as protection against subcutaneous metrazol-induced seizures; format: functional
Rattus norvegicus [11] = experiment: Anticonvulsant activity in albino Sprague-Dawley rat assessed as protection against maximal electroshock-induced seizures at 30 mg/kg, po after 2 hrs; format: functional, organism-based
Rattus norvegicus [12] = experiment: Anticonvulsant activity in albino Sprague-Dawley rat assessed as protection against maximal electroshock-induced seizures at 30 mg/kg, ip after 0.5 hrs; format: functional, organism-based
Rattus norvegicus [13] = experiment: Anticonvulsant activity in albino Sprague-Dawley rat assessed as protection against maximal electroshock-induced seizures at 30 mg/kg, po after 0.5 hrs; format: functional, organism-based
Rattus norvegicus [14] = experiment: Anticonvulsant activity in albino Sprague-Dawley rat assessed as protection against maximal electroshock-induced seizures at 30 mg/kg, po after 1 hr; format: functional, organism-based
Rattus norvegicus [15] = experiment: Neurotoxicity in albino Sprague-Dawley rat assessed as behavioral impairment at 30 mg/kg, ip after 2 hrs by rotorod test; format: toxicity, organism-based; conditions: in vivo
Rattus norvegicus [16] = experiment: Anticonvulsant activity in albino Sprague-Dawley rat assessed as protection against maximal electroshock-induced seizures at 30 mg/kg, ip after 0.25 hrs; format: functional, organism-based
Rattus norvegicus [17] = experiment: Anticonvulsant activity in ip dosed albino Sprague-Dawley rat assessed as protection against subcutaneous metrazol-induced seizures; format: functional
[18] = Neurotoxicity in ip dosed albino Sprague-Dawley rat assessed as motor impairment by rotorod test; format: toxicity, organism-based; conditions: in vivo
Mus musculus [19] = experiment: Neurotoxicity in albino CF1 mouse assessed as behavioral impairment at 30 mg/kg, ip after 0.5 hrs by rotorod test; format: toxicity, organism-based; conditions: in vivo
Mus musculus [20] = experiment: Neurotoxicity in albino CF1 mouse assessed as behavioral impairment at 100 mg/kg, ip after 1 hr by rotorod test; format: toxicity, organism-based; conditions: in vivo
Rattus norvegicus [21] = experiment: Neurotoxicity in albino Sprague-Dawley rat assessed as behavioral impairment at 30 mg/kg, po after 0.25 hrs by rotorod test; format: toxicity, organism-based; conditions: in vivo
Mus musculus [22] = experiment: Anticonvulsant activity in albino CF1 mouse assessed as protection against 44 mA current-induced seizure at 100 mg/kg, ip after 0.25 hrs by 6 Hz psychomotor test; format: functional, organism-based
Mus musculus [23] = experiment: Anticonvulsant activity in albino CF1 mouse assessed as protection against maximal electroshock-induced seizures at 100 mg/kg, ip after 0.5 hrs; format: functional, organism-based
Mus musculus [24] = experiment: Anticonvulsant activity in albino CF1 mouse assessed as protection against 32 mA current-induced seizure at 30 mg/kg, ip after 2 hrs by 6 Hz psychomotor test; format: functional, organism-based
Rattus norvegicus [25] = experiment: Neurotoxicity in albino Sprague-Dawley rat assessed as behavioral impairment at 30 mg/kg, ip after 0.25 hrs by rotorod test; format: toxicity, organism-based; conditions: in vivo
Rattus norvegicus [26] = experiment: Anticonvulsant activity in ip dosed albino Sprague-Dawley rat assessed as protection against maximal electroshock-induced seizures; format: functional
Mus musculus [27] = experiment: Anticonvulsant activity in albino CF1 mouse assessed as protection against maximal electroshock-induced seizures at 100 mg/kg, ip after 2 hrs; format: functional, organism-based
Rattus norvegicus [28] = experiment: Neurotoxicity in albino Sprague-Dawley rat assessed as behavioral impairment at 30 mg/kg, ip after 1 hr by rotorod test; format: toxicity, organism-based; conditions: in vivo
Rattus norvegicus [29] = experiment: Neurotoxicity in albino Sprague-Dawley rat assessed as behavioral impairment at 30 mg/kg, ip after 0.5 hrs by rotorod test; format: toxicity, organism-based; conditions: in vivo
Rattus norvegicus [30] = experiment: Anticonvulsant activity in albino Sprague-Dawley rat assessed as protection against maximal electroshock-induced seizures at 30 mg/kg, ip after 2 hrs; format: functional, organism-based
[31] = Neurotoxicity in ip dosed albino CF1 mouse assessed as motor impairment by rotorod test; format: toxicity, organism-based; conditions: in vivo
[32] = Protective index, ratio of TD50 for neurotoxicity in ip dosed albino CF1 mouse to ED50 for anticonvulsant activity in ip dosed maximal electroshock-induced seizure albino CF1 mouse model; format: toxicity, organism-based; conditions: in vivo, read-out: Ratio TD50/ED50
Rattus norvegicus [33] = experiment: Anticonvulsant activity in ip dosed albino Sprague-Dawley rat assessed as protection against subcutaneous metrazol-induced seizures by measuring time to peak effect; format: functional
Rattus norvegicus [34] = experiment: Neurotoxicity in albino Sprague-Dawley rat assessed as behavioral impairment at 30 mg/kg, po after 1 hr by rotorod test; format: toxicity, organism-based; conditions: in vivo
[35] = Protective index, ratio of TD50 for neurotoxicity in ip dosed albino Sprague-Dawley rat to ED50 for anticonvulsant activity in ip dosed subcutaneous metrazol-induced seizure albino Sprague-Dawley rat model; format: toxicity, organism-based; conditions: in vivo, read-out: Ratio TD50/ED50
Rattus norvegicus [36] = experiment: Anticonvulsant activity in ip dosed albino Sprague-Dawley rat assessed as protection against maximal electroshock-induced seizures by measuring time to peak effect; format: functional
Mus musculus [37] = experiment: Anticonvulsant activity in albino CF1 mouse assessed as protection against maximal electroshock-induced seizures at 30 mg/kg, ip after 0.5 hrs; format: functional, organism-based
[38] = Protective index, ratio of TD50 for neurotoxicity in ip dosed albino CF1 mouse to ED50 for anticonvulsant activity in ip dosed 6 Hz current-induced seizure albino CF1 mouse model; conditions: in vivo
Mus musculus [39] = experiment: Neurotoxicity in albino CF1 mouse assessed as behavioral impairment at 100 mg/kg, ip after 2 hrs by rotorod test; format: toxicity, organism-based; conditions: in vivo
Rattus norvegicus [40] = experiment: Neurotoxicity in albino Sprague-Dawley rat assessed as behavioral impairment at 30 mg/kg, po after 0.5 hrs by rotorod test; format: toxicity, organism-based; conditions: in vivo
Mus musculus [41] = experiment: Anticonvulsant activity in ip dosed albino CF1 mouse assessed as protection against 6 Hz current-induced seizures by psychomotor test; format: functional
Mus musculus [42] = experiment: Anticonvulsant activity in ip dosed albino CF1 mouse assessed as protection against maximal electroshock-induced seizures; format: functional
Rattus norvegicus [43] = experiment: Neurotoxicity in albino Sprague-Dawley rat assessed as behavioral impairment at 30 mg/kg, po after 2 hrs by rotorod test; format: toxicity, organism-based; conditions: in vivo
Mus musculus [44] = experiment: Neurotoxicity in albino CF1 mouse assessed as behavioral impairment at 300 mg/kg, ip after 0.5 hrs by rotorod test; format: toxicity, organism-based; conditions: in vivo
Mus musculus [45] = experiment: Anticonvulsant activity in ip dosed albino CF1 mouse assessed as protection against 6 Hz current-induced seizure by measuring time to peak effect; format: functional
Mus musculus [46] = experiment: Anticonvulsant activity in albino CF1 mouse assessed as protection against 44 mA current-induced seizure at 50 mg/kg, ip after 0.25 hrs by 6 Hz psychomotor test; format: functional, organism-based
Mus musculus [47] = experiment: Neurotoxicity in albino CF1 mouse assessed as behavioral impairment at 50 mg/kg, ip after 2 hrs by rotorod test; format: toxicity, organism-based; conditions: in vivo
Mus musculus [48] = experiment: Neurotoxicity in albino CF1 mouse assessed as behavioral impairment at 50 mg/kg, ip after 0.25 hrs by rotorod test; format: toxicity, organism-based; conditions: in vivo
Mus musculus [49] = experiment: Anticonvulsant activity in albino CF1 mouse assessed as protection against maximal electroshock-induced seizures at 30 mg/kg, ip after 2 hrs; format: functional, organism-based
Mus musculus [50] = experiment: Neurotoxicity in albino CF1 mouse assessed as behavioral impairment at 50 mg/kg, ip after 1 hr by rotorod test; format: toxicity, organism-based; conditions: in vivo
Mus musculus [51] = experiment: Anticonvulsant activity in albino CF1 mouse assessed as protection against 32 mA current-induced seizure at 300 mg/kg, ip after 2 hrs by 6 Hz psychomotor test; format: functional, organism-based
Mus musculus [52] = experiment: Anticonvulsant activity in albino CF1 mouse assessed as protection against 32 mA current-induced seizure at 100 mg/kg, ip after 0.5 hrs by 6 Hz psychomotor test; format: functional, organism-based
Mus musculus [53] = experiment: Anticonvulsant activity in albino CF1 mouse assessed as protection against 32 mA current-induced seizure at 100 mg/kg, ip after 2 hrs by 6 Hz psychomotor test; format: functional, organism-based
Mus musculus [54] = experiment: Anticonvulsant activity in albino CF1 mouse assessed as protection against maximal electroshock-induced seizures at 300 mg/kg, ip after 0.5 hrs; format: functional, organism-based
Mus musculus [55] = experiment: Anticonvulsant activity in albino CF1 mouse assessed as protection against 32 mA current-induced seizure at 30 mg/kg, ip after 0.5 hrs by 6 Hz psychomotor test; format: functional, organism-based

## CCCC(CC)OC(=O)NCCCn1ccnc1 (stereo not drawn)
Mus musculus [1]
  Activity: Toxic
Mus musculus [2]
  Activity: Active
Mus musculus [3]
  Activity: Non-toxic
Mus musculus [4]
  Activity: Toxic
Mus musculus [5]
  Time: 0.5 h
Mus musculus [6]
  Time: 0.5 h
[7]
  selectivity ratio: 5.4
Rattus norvegicus [8]
  Activity: Active
[9]
  selectivity ratio: 1.7
Mus musculus [10]
  ED50: > 50 mg/kg
Rattus norvegicus [11]
  Activity: inactive
Rattus norvegicus [12]
  Activity: Active
Rattus norvegicus [13]
  Activity: inactive
Rattus norvegicus [14]
  Activity: inactive
Rattus norvegicus [15]
  Activity: Non-toxic
Rattus norvegicus [16]
  Activity: Active
Rattus norvegicus [17]
  ED50: > 92 mg/kg
[18]
  TD50: 92 mg/kg
Mus musculus [19]
  Activity: Non-toxic
Mus musculus [20]
  Activity: Non-toxic
Rattus norvegicus [21]
  Activity: Non-toxic
Mus musculus [22]
  Activity: Active
Mus musculus [23]
  Activity: Active
Mus musculus [24]
  Activity: inactive
Rattus norvegicus [25]
  Activity: Non-toxic
Rattus norvegicus [26]
  ED50: 17 mg/kg
Mus musculus [27]
  Activity: Active
Rattus norvegicus [28]
  Activity: Non-toxic
Rattus norvegicus [29]
  Activity: Non-toxic
Rattus norvegicus [30]
  Activity: Active
[31]
  TD50: 86 mg/kg
[32]
  selectivity ratio: 3.1
Rattus norvegicus [33]
  Time: 0.25 h
Rattus norvegicus [34]
  Activity: Non-toxic
[35]
  selectivity ratio: 1
Rattus norvegicus [36]
  Time: 0.25 h
Mus musculus [37]
  Activity: Active
[38]
  selectivity ratio: 0.64
Mus musculus [39]
  Activity: Non-toxic
Rattus norvegicus [40]
  Activity: Non-toxic
Mus musculus [41]
  ED50: 135 mg/kg
Mus musculus [42]
  ED50: 28 mg/kg
Rattus norvegicus [43]
  Activity: Non-toxic
Mus musculus [44]
  Activity: Toxic
Mus musculus [45]
  Time: 0.5 h

## CCCC(CCC)COC(=O)NCCCn1ccnc1
Mus musculus [46]
  Activity: inactive
Mus musculus [2]
  Activity: Active
Mus musculus [3]
  Activity: Non-toxic
Mus musculus [4]
  Activity: Toxic
Mus musculus [5]
  Time: 0.5 h
Mus musculus [6]
  Time: 0.5 h
Mus musculus [47]
  Activity: Non-toxic
[7]
  selectivity ratio: 7.3
[9]
  selectivity ratio: 0.9
Mus musculus [10]
  ED50: > 70 mg/kg
Rattus norvegicus [11]
  Activity: inactive
Rattus norvegicus [12]
  Activity: Active
Rattus norvegicus [13]
  Activity: inactive
Rattus norvegicus [14]
  Activity: inactive
Rattus norvegicus [15]
  Activity: Non-toxic
Rattus norvegicus [16]
  Activity: Active
Rattus norvegicus [17]
  ED50: > 88 mg/kg
[18]
  TD50: 87 mg/kg
Mus musculus [19]
  Activity: Non-toxic
Rattus norvegicus [21]
  Activity: Non-toxic
Mus musculus [48]
  Activity: Non-toxic
Mus musculus [23]
  Activity: Active
Mus musculus [24]
  Activity: inactive
Mus musculus [49]
  Activity: inactive
Mus musculus [50]
  Activity: Non-toxic
Mus musculus [51]
  Activity: Active
Rattus norvegicus [25]
  Activity: Non-toxic
Mus musculus [52]
  Activity: Active
Rattus norvegicus [26]
  ED50: 12 mg/kg
Rattus norvegicus [28]
  Activity: Non-toxic
Rattus norvegicus [29]
  Activity: Non-toxic
Mus musculus [53]
  Activity: Active
Rattus norvegicus [30]
  Activity: inactive
Mus musculus [54]
  Activity: Active
Mus musculus [55]
  Activity: inactive
[31]
  TD50: 65 mg/kg
[32]
  selectivity ratio: 3.3
Rattus norvegicus [33]
  Time: 0.25 h
Rattus norvegicus [34]
  Activity: Non-toxic
[35]
  selectivity ratio: 1
Rattus norvegicus [36]
  Time: 0.25 h
[38]
  selectivity ratio: 2
Rattus norvegicus [40]
  Activity: Non-toxic
Mus musculus [41]
  ED50: 32 mg/kg
Mus musculus [42]
  ED50: 18 mg/kg
Rattus norvegicus [43]
  Activity: Non-toxic
Mus musculus [44]
  Activity: Toxic
Mus musculus [45]
  Time: 0.5 h
